{"source": "patent US20160256452A1", "about": "(Develco Pharma Schweiz AG, priority 2015, published 2016)", "key": {"[1]": {"test_system": "loperamide-induced experimental constipation", "assay": "Oro-cecal transit time (OCT), sulfasalazine/sulfapyridine method, loperamide-induced experimental constipation", "format": "in vivo, human", "description": "(§1) The clinical study was performed in 15 German white subjects (11 males, 4 females, age 20-34 years, body mass index 20.3-27.0 kg/ m^2). All subjects were in good health as confirmed by medical histories, physical examination, routine clinical-chemical and hematologic screenings and 12-lead ECG. Three female subjects took hormonal contraceptives regularly and one subject took 300 mg ibuprofen to treat headache 4 days before the administration of study medication. Three subjects were smokers of less than 10 cigarettes per day. 14 subjects drank alcohol occasionally. All were negative in the pre-study screenings for alcohol, drugs, hepatitis-B-virus (HBV) and hepatitis-C-virus (HCV) and human immunodeficiency virus (HIV). Before administration of the study medication, female subjects were screened to be not pregnant and to apply a safe method of contraception. […] All participants provided informed written consent before inclusion into the study. The study was approved by the Independent Ethics Committee of the University Medicine Greifswald and by the German Federal Institute for Drugs and Medical Devices (BfArM) and was registered by EudraCT (2009-014357-32) and ClinicalTrials.gov (NCT01596777).\n(§2) Pharmacokinetics of methylnaltrexone and its effects on loperamid-induced experimental constipation were evaluated in a randomized, controlled, five-period, cross-over study with 7 days wash-out between the study periods. […] The time of methylnaltrexone administration was defined to be time zero. For control of intestinal transit times in absence of loperamide and methylnaltrexone, 200 ml of pure apple juice and a methylnaltrexone placebo capsule were given at the respective times (Control). […] Oro-cecal transit time (OCT) was assessed using the sulfasalazine/sulfapyridine method. For that, 500 mg immediate-release sulfasalazine (Azulfidine®, Pharmacia, Germany) were swallowed with 200 ml table water 2 h after administration of the respective methylnaltrexone study medication to avoid competitive interactions during absorption. The time of first appearance of sulfapyridine in serum was defined to be the OCT (cut-off: 100 μg/ml serum). Whole gut transit time (WGT) was evaluated using a radio-opaque marker method. For that, Colon Transit' capsules (Medical Instruments Corporation GmbH, Herford, Germany) were swallowed 24, 12 and 1 h before time zero using the 200 ml apple juice for loperamide dosing. Each capsule contains 10 radio-opaque markers of identical shape (e.g. triangles). A Colon Transit™ batch consists of capsules with markers of different shape (e.g. triangles, circles, rings etc.). Our subjects were willing and compliant for sampling stool in single portions immediately after feeling urge without suppressing defecation using tightly closable containers. Then, the number of radio-opaque markers with identical shape was counted in the stool portions after X-ray imaging (Philips Optimus, Philips Healthcare, Hamburg, Germany) using the Agfa PACS Workstation Impact-Version 5.2 (Agfa-Healthcare, Cologne, Germany). From the time of administration of the 3×10 radio-opaque markers (3 Colon Transit™ capsules) and the time of their appearance in different stool portions could be reliably concluded on WGT as described below. Colon transit time (CTT) was derived from the difference of WGT and OCT.\nFor supervised pretreatment with loperamide and Colon Transit™ (mouth checking) and for providing stool samples, the subjects visited the study unit. […]"}, "[2]": {"test_system": "loperamide-induced experimental constipation", "assay": "Whole gut transit time (WGT), radio-opaque marker method, loperamide-induced experimental constipation", "format": "in vivo, human", "description": "as §1, with “All” for “The clinical study was performed in 15 German white subjects (11 males, 4 females, age 20-34 years, body mass index 20.3-27.0 kg/ m^2). All”, “study.” for “study. The study was approved by the Independent Ethics Committee of the University Medicine Greifswald and by the German Federal Institute for Drugs and Medical Devices (BfArM) and was registered by EudraCT (2009-014357-32) and ClinicalTrials.gov (NCT01596777).”\nas §2, with “Our subjects were willing and compliant for sampling stool in single portions immediately after feeling urge without suppressing defecation using tightly closable containers.” left out\nIntestinal transit times: Oro-cecal transit time (OCT) was defined as the time span between oral administration of sulfasalazine (500 mg immediate-release tablet) and the appearance of its metabolite sulfapyridine in serum (cut-off=100 μg/ml) which is generated in the cecum by bacterial azo-reduction. Whole-gut transit time (WGT) was assessed by counting the radio-opaque markers with different shapes (Colon Transit™) in the feces according to formula (1) : […]\nwith δ1-3 as derived by formula (2):\n[formula] • δt =mouth to stool transit time of markers type 1, 2, 3 • xi=number of markers type 1, 2, 3 counted at time ti • n=total number of stools"}, "[3]": {"test_system": "loperamide-induced experimental constipation", "assay": "Colon transit time (CTT), difference of WGT and OCT, loperamide-induced experimental constipation", "format": "in vivo, human", "details": "for colon transit time after pre-treatment with loperamide: all 15 subjects", "description": "as §2\nThe CTT was evaluated from the difference of WGT and OCT."}, "[4]": {"details": "cited from earlier work"}, "[5]": {"details": "12 LOP-responders, Control versus LOP"}, "[6]": {"details": "12 LOP-responders, Control versus LOP, range"}, "[7]": {"details": "mean ± SD, 12 LOP-responders, loperamide 4 mg 24, 12, 1 h before and 12 h after placebo capsules"}}, "note": "Where a name gives a salt, the structure may show the parent alone.", "data": [{"smiles": "CN(C)C(=O)C(CCN1CCC(O)(c2ccc(Cl)cc2)CC1)(c1ccccc1)c1ccccc1", "note": "[LOP, loperamide hydrochloride]", "values": [{"measurement": "prolongation of the OCT (mean ± SD)", "setting": "[1]; [5]", "value": "3.08 ± 3.30", "unit": "h"}, {"measurement": "prolongation of the OCT (range)", "setting": "[1]; [6]", "value": "0.50 to 10.5", "unit": "h"}, {"measurement": "OCT after pre-treatment with loperamide (mean ± SD)", "setting": "[1]; all 15 subjects", "value": "7.4 ± 3.7", "unit": "h"}, {"measurement": "OCT after pre-treatment with loperamide (range)", "setting": "[1]; all 15 subjects, range", "value": "4.0 to 14.0", "unit": "h"}, {"measurement": "OCT", "setting": "[1]; [7]", "value": "7.00 ± 3.55", "unit": "h"}, {"measurement": "WGT extended by (mean ± SD)", "setting": "[2]; [5]", "value": "37.8 ± 19.1", "unit": "h"}, {"measurement": "WGT extended by (range)", "setting": "[2]; [6]", "value": "20.6 to 74.1", "unit": "h"}, {"measurement": "WGT after pre-treatment with loperamide (mean ± SD)", "setting": "[2]; all 15 subjects", "value": "73.4 ± 19.9", "unit": "h"}, {"measurement": "WGT elevation versus Control", "setting": "[2]; all 15 subjects", "value": "about 1.8 fold"}, {"measurement": "WGT after pre-treatment with loperamide (range)", "setting": "[2]; all 15 subjects, range", "value": "45.9 to 114", "unit": "h"}, {"measurement": "WGT", "setting": "[2]; [7]", "value": "77.3 ± 19.6", "unit": "h"}, {"measurement": "prolongation of the CTT (mean ± SD)", "setting": "[3]; [5]", "value": "34.8 ± 18.3", "unit": "h"}, {"measurement": "prolongation of the CTT (range)", "setting": "[3]; [6]", "value": "18.3 to 73.6", "unit": "h"}, {"measurement": "colon transit time after pre-treatment with loperamide", "setting": "[3]", "value": "66.0 ± 20.9", "unit": "h"}, {"measurement": "colon transit time after pre-treatment with loperamide", "setting": "[3]; range", "value": "33.9 to 110", "unit": "h"}, {"measurement": "CTT", "setting": "[3]; [7]", "value": "70.3 ± 19.4", "unit": "h"}]}, {"smiles": "C[N@+]1(CC2CC2)CC[C@]23c4c5ccc(O)c4O[C@H]2C(=O)CC[C@@]3(O)[C@H]1C5", "note": "[methylnaltrexone, N-methylnaltrexone bromide]", "values": [{"measurement": "time of peak concentrations", "setting": "[4]; following subcutaneous administration", "value": "approximately 0.5 hours"}, {"measurement": "crossing of the human blood-brain barrier", "setting": "[4]; in vivo", "value": "does not cross"}, {"measurement": "eliminated without being metabolised", "setting": "[4]; in vivo", "value": "85 % of the administered dose"}, {"measurement": "proportion that binds to plasma proteins", "setting": "[4]; in vivo", "value": "11-15%"}, {"measurement": "steady-state volume of distribution", "setting": "[4]; in vivo", "value": 1.1, "unit": "L/kg"}, {"measurement": "terminal half-life", "setting": "[4]; in vivo", "value": "about 8 hours"}, {"measurement": "Accumulation", "setting": "[4]; intravenous administration every 6 hours", "value": "has not been observed"}, {"measurement": "excreted in urine", "setting": "[4]; share of the dose", "value": "Approximately half of the dose"}]}]}
